Test results from patent publication US20140243401A1, “METHODS OF SCREENING COMPOUNDS THAT ARE CYTOTOXIC TO TUMOR CELLS AND METHODS OF TREATING TUMOR CELLS USING SUCH COMPOUND” (The Johns Hopkins University, priority 2010, published 2014).
In brackets after ≈: the same amount, converted by molar mass. Read-outs that look alike come from different tables or passages of the source.

What was measured:
purified rat liver FAS = target: T1, purified rat liver FAS (Rattus norvegicus, UniProt P12785); test: purified rat Type I FAS, spectrophotometric NADPH oxidation; format: biochemical
T1 construct: Highly purified rat FAS was obtained from starved and induced Sprague-Dawley rat livers; from tissue; host or cells: liver of starved and induced Sprague-Dawley rats
T1 sequence (P12785 whole entry): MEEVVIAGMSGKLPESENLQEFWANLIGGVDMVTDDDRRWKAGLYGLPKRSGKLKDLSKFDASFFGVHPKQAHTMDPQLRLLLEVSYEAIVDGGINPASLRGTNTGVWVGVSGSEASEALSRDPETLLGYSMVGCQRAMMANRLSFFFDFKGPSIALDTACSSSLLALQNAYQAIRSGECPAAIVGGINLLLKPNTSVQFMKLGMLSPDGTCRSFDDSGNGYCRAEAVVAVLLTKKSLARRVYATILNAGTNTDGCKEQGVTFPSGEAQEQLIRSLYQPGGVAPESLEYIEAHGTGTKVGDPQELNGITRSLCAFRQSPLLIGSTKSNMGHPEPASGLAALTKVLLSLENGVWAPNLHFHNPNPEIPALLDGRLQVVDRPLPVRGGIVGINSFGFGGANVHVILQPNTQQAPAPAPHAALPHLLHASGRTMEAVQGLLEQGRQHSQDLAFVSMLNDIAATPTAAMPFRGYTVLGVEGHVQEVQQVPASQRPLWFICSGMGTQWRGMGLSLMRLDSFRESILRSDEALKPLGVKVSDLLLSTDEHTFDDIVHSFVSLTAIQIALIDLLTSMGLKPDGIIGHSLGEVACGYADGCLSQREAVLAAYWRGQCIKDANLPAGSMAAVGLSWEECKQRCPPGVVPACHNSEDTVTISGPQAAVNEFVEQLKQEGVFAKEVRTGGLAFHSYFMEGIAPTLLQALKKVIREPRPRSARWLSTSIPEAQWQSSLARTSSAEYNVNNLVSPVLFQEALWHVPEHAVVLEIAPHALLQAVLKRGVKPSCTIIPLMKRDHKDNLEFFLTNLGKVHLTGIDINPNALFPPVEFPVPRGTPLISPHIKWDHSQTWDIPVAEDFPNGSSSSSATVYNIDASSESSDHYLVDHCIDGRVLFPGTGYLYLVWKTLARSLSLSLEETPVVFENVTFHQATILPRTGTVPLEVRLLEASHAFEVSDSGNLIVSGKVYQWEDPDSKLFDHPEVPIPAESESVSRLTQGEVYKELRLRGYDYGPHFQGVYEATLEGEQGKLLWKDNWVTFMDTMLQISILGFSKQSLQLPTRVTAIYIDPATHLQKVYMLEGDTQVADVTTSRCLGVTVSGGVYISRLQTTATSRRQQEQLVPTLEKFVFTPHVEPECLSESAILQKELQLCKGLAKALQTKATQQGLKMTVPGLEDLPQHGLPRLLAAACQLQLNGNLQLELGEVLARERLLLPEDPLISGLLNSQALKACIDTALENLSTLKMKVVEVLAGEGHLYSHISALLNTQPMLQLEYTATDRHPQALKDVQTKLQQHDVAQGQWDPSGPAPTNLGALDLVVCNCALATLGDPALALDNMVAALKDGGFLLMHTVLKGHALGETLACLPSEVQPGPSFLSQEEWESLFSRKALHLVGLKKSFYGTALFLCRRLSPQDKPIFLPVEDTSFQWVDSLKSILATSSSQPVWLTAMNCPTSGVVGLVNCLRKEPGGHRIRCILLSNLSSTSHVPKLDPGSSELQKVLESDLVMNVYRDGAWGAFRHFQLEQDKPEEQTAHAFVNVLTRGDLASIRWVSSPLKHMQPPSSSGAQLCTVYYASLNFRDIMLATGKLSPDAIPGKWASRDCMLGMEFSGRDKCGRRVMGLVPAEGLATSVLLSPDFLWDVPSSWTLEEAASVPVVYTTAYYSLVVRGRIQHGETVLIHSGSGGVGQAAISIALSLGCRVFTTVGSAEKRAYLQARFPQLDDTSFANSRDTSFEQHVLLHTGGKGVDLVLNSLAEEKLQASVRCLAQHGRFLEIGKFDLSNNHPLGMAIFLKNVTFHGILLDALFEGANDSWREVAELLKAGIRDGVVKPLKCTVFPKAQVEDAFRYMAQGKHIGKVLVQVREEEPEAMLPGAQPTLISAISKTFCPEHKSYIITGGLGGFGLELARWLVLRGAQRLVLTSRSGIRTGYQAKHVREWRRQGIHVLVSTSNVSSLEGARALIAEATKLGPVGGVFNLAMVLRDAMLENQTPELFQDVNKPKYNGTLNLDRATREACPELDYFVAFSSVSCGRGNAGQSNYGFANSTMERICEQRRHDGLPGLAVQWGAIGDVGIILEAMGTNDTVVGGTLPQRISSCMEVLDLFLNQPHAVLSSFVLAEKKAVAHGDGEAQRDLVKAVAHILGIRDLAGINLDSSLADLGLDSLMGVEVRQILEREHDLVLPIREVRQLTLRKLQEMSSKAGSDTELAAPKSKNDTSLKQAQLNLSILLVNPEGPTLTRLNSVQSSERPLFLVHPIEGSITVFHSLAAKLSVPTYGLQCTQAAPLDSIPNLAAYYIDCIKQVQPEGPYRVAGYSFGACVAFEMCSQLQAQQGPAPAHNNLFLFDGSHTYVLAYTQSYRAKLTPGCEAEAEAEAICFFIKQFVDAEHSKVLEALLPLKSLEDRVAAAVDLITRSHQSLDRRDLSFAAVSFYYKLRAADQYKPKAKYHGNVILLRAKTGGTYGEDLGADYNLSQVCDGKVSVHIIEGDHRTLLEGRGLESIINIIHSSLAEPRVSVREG
Experimental: Highly purified rat FAS was obtained from starved and induced Sprague-Dawley rat livers by slight modification of a published procedure.xx [Abraham, S.; Smith, S. Methods Enzymol. 1975, 35B, 65-73.]. Enzyme activity was assayed spectrophotometrically by measuring the decrease in extinction at 340 nm that accompanies the oxidation of NADPH during the overall reaction. The enzyme reaction mixture contained 100 mM KH2PO4 (pH 6.6), 1 mM EDTA, 1 mM dithiothreitol (DTT), 0.10 mM acetylCoA, 0.20 mM NADPH, ˜3 μg FAS and escalating concentrations of inhibitor to be tested were combined in a final volume of 1 mL and assayed at 37° C. for 5 min to monitor malonylCoA-independent oxidation of NADPH. FAS activity was then initiated by addition of 0.2 mM malonyl-CoA.

[1] = test system: AMP-activated protein kinase (AMPK); test: AMPK activation (pAMPK Western blot) in MCF 7 cells at varying glucose and oxygen; format: cell-based, human; conditions: MCF 7, 1 mM or 5 mM glucose, 1% or 21% oxygen, FIGS. 12, 13
Experimental: FIG. 12 A illustrates the effects of varying oxygen and glucose concentrations on AMPK activation over time in the presence of C31 in MCF 7 cells.
Determination of AMP-activated protein kinase status was carried out using the procedure described above. Cells were grown in 6-well plates at 5×10^4 per well and incubated overnight. Cells were cultured in 1 mM or 5 mM glucose at either 1% or 21% (ambient) oxygen levels. These conditions were employed for treatment with vehicle, C31, or Riv7d. Following drug treatment, the cells were harvested in Laemmli buffer and boiled for 5 minutes. Proteins were separated on a 4-15% SDS-PAGE gradient gel and transferred to a nitrocellulose membrane. Antibodies to pAMPK and AMPK were obtained from Cell Signaling.

[2] = test system: Human ovarian cancer cell lines; test: XTT cytotoxicity assay, human ovarian cancer cell lines; format: cell-based; conditions: 2 human ovarian cancer cell lines, read-out: LC50 (the source's name)
Experimental: (§1) Cytotoxicity can be easily measured using XTT assays, which provide an indication of mitochondrial activity. The XTT assay is a non-radioactive alternative for the [^51Cr] release cytotoxicity assay. XTT is a tetrazolium salt that is reduced to a formazan dye only by metabolically active, viable cells. The reduction of XTT is measured spectrophotometrically as OD490-OD650. Thus, cells that are actively metabolizing will form reaction product when subjected to XTT measurement.
(§2) For this experiment, cells were cultured under standard culture conditions. MCF7 human breast cancer cells were cultured in DMEM containing 5 mM glucose medium with 10% fetal calf serum, 0.01 mg/ml insulin and 1% penicillin/streptomycin. To measure the cytotoxicity of specific compounds against cancer cells, 9×10^3 MCF7 cells were plated per well in 96-well plates. Following overnight culture, the compounds, dissolved in DMSO, were added to the wells in 1 μl volume at specified concentrations. Vehicle controls were run for each experiment. Each condition was run in triplicate. […] Plates were read at OD490 on a PerkinElmer Victor 1420. […]
(§3) Using the XTT assay, LC50 values for C31 were determined for numerous human cancer cell lines and human hepatocytes, as shown in the following table: […]

[3] = test system: AMP-activated protein kinase (AMPK); test: AMPK activation (pAMPK Western blot) in SKOV3 cells; format: cell-based, human; conditions: over time, FIG. 8
Description: Another indicator of cellular energy status and metabolic compromise is the activity on the cellular kinase AMP-activated protein kinase (AMPK). AMPK is a master energy sensor. AMPK regulates both enzyme activities and gene expression. When energy levels are low, and ATP levels fall with the concomitant rise in […] levels, AMPK is activated and phosphorylated. When energy levels are surfeit, AMPK is inactivated and not phosphorylated. Thus, AMPK controls metabolic fluxes between anabolic and catabolic states.
We determined the ability of C31 or Riv7d to cause the activation of AMPK in a variety of cancer cells in vitro. SKOV3 cells were cultured in DMEM containing 5 mM glucose medium with 10% fetal calf serum, 0.01 mg/ml insulin and 1% penicillin/streptomycin. Antibodies to pAMPK and AMPK were obtained from Cell Signaling. Cells were grown in 6-well plates at 5×10^4 per well and incubated overnight. Following drug treatment, the cells were harvested in Laemmli buffer and boiled for 5 minutes. Proteins were separated on a 4-15% SDS-PAGE gradient gel and transferred to a nitrocellulose membrane.

[4] = test system: SKOV3 human ovarian cancer cells; test: JC-1 staining, mitochondrial membrane potential in SKOV3 cells; format: cell-based; conditions: SKOV3, drug in DMSO applied 30 min prior to staining
Description: JC-1 staining is an indicator of mitochondrial membrane potential; with this assay, mitochondria within cells stained with this fluorescent dye emit a wavelength in the red spectrum when mitochondrial membrane potential is intact. When mitochondria are depolarized, the wavelength of the spectrum emitted changes to green. Therefore, the ratio of red/green fluorescence will give an indication of the intactness of the membrane potential of mitochondria, and thus mitochondrial function.
The left panels show granular red-staining indicating mitochondria with intact membrane potential is brightest in control, and decreases with increasing concentrations of C31. Conversely, the right panels show the diffuse cytoplasmic green-staining which indicates mitochondrial depolarization, is dimmest in control and brightest at the highest concentration of C31 tested. Drug was solubilized in DMSO and applied for 30 min prior to staining.

MCF 7 cells = test: clonogenic assay; format: cell-based, human; conditions: MCF 7, FIG. 4(C)
Experimental: In this assay, the effectiveness of specific agents on cell survival and proliferation can be measured in a functional sense. After treatment, surviving cells are re-plated to determine whether the surviving cells are still capable of proliferation. Therefore, this if a more direct measure of cell survival and function.
4×10^5 cells were plated in 25 cm^2 flasks. After overnight culture, cells are treated with compounds for specified times and concentrations. After drug treatment, cells are trypsinized and equal numbers of treated and control cells are plated in triplicate in 60-mm dishes at a density of 500 cells/dish in medium without drugs. Clones are stained and counted after 7-10 days
MCF 7 cells were treated with vehicle, C31 at increasing doses, or Riv7d.

[5] = test system: Human (non-small cell) lung cancer cell lines; test: XTT cytotoxicity assay, human non-small cell lung cancer cell lines; format: cell-based; conditions: 4 human non-small cell lung cancer cell lines, read-out: LC50 (the source's name)
Experimental: as §1, §2, §3

[6] = test system: Human colon cancer cell line; test: XTT cytotoxicity assay, human colon cancer cell line; format: cell-based; conditions: 1 human colon cancer cell line, read-out: LC50 (the source's name)
Experimental: as §1, §2, §3

CCCCCCCCC1(C)SC(=O)C=C1OCC(=O)Nc1ccc(Cl)cc1 (stereo not drawn) [Compound C31]
IC50 (purified rat liver FAS): 42 µM
IC50 (purified rat liver FAS; approximate): ~41 µM
AMPK phosphorylation (quantitative Western blots) [1]: increased phosphorylation of AMPK
CC50 [2]: 6 to 8.1 µg/mL (≈ 14.6 to 19.8 µM)
AMPK activation (pAMPK levels, Western blot) [3]: rapid activation of AMPK
mitochondrial depolarization (JC-1 staining) [4]: depolarization of the mitochondria in the SKOV3 human ovarian cancer cells which is dose-dependent
viability in clonogenic assay (MCF 7 cells): dose-dependent decrease in viability
CC50 [5]: 4 to 8 µg/mL (≈ 9.76 to 19.5 µM)
CC50 [6]: 4 µg/mL (≈ 9.76 µM)
